This is an account of results in the NIST ThermoML archive (doi:10.1016/j.jct.2018.09.003).

Molecules are shown by their SMILES. Numbers after ± are expanded uncertainties.

This data set can be described thus: activity coefficient (dimensionless); of the first substance listed, at infinite dilution; xn = mol fraction of the nth substance listed. The settings on record: 101.33 kPa, Liquid, Chromatography, x1 = 0.

With `CCCCC` [pentane] + CCCCCCCCn1cc[n+](C)c1C.F[B-](F)(F)F, the activity coefficient (313.15 K) is 15.8 ± 1.7; the activity coefficient (323.15 K) worked out at 15.3 ± 1.6; the activity coefficient (333.15 K) is 14.8 ± 1.6; the activity coefficient (343.15 K) came to 14.3 ± 1.5; the activity coefficient (353.15 K) came to 14 ± 1.5.

For the molecule `CCCCCC` [hexane] + CCCCCCCCn1cc[n+](C)c1C.F[B-](F)(F)F, the activity coefficient was found to be 20 ± 2.1 (313.15 K); 19.8 ± 2.1 (323.15 K); 19.2 ± 2 (333.15 K); 18.7 ± 2 (343.15 K); 18.1 ± 1.9 (353.15 K).

As to `ClC(Cl)(Cl)Cl` [tetrachloromethane] + CCCCCCCCn1cc[n+](C)c1C.F[B-](F)(F)F, the activity coefficient by setting is: (313.15 K) 4.11 ± 0.43; (323.15 K) 4.16 ± 0.44; (333.15 K) 4.2 ± 0.44; (343.15 K) 4.23 ± 0.44; (353.15 K) 4.26 ± 0.45.

Take `Cc1cccc(C)c1` [1,3-dimethylbenzene] + CCCCCCCCn1cc[n+](C)c1C.F[B-](F)(F)F: the activity coefficient reads like this: (313.15 K) 4.19 ± 0.44; (323.15 K) 4.24 ± 0.45; (333.15 K) 4.29 ± 0.45; (343.15 K) 4.35 ± 0.46; (353.15 K) 4.4 ± 0.46.

As to `CCCCO` [butan-1-ol] + CCCCCCCCn1cc[n+](C)c1C.F[B-](F)(F)F, the activity coefficient (313.15 K) was determined as 2.79 ± 0.29; the activity coefficient (323.15 K) came to 2.64 ± 0.28; the activity coefficient (333.15 K) stood at 2.52 ± 0.26; the activity coefficient (343.15 K) was found to be 2.4 ± 0.25; the activity coefficient (353.15 K) is 2.28 ± 0.24.

On to `CCCO` [propan-1-ol] + CCCCCCCCn1cc[n+](C)c1C.F[B-](F)(F)F, for which the activity coefficient is, setting by setting: (313.15 K) 2.56 ± 0.27; (323.15 K) 2.39 ± 0.25; (333.15 K) 2.24 ± 0.24; (343.15 K) 2.1 ± 0.22; (353.15 K) 1.97 ± 0.21.

Turning to `CCCCCCCCCC` [decane] + CCCCCCCCn1cc[n+](C)c1C.F[B-](F)(F)F, the activity coefficient (313.15 K) was found to be 55.2 ± 5.8; the activity coefficient (323.15 K) was determined as 54.2 ± 5.7; the activity coefficient (333.15 K) amounted to 52.9 ± 5.6; the activity coefficient (343.15 K) was determined as 51.5 ± 5.4; the activity coefficient (353.15 K) turned out to be 50.5 ± 5.3.

As for `CCCCCCCCC` [nonane] + CCCCCCCCn1cc[n+](C)c1C.F[B-](F)(F)F, the activity coefficient runs as follows: (313.15 K) 42.2 ± 4.4; (323.15 K) 41.1 ± 4.3; (333.15 K) 39.6 ± 4.2; (343.15 K) 38.4 ± 4; (353.15 K) 37.1 ± 3.9.

As for `C1=CCCCC1` [cyclohexene] + CCCCCCCCn1cc[n+](C)c1C.F[B-](F)(F)F, the activity coefficient is, setting by setting: (313.15 K) 8.2 ± 0.86; (323.15 K) 8.01 ± 0.84; (333.15 K) 7.81 ± 0.82; (343.15 K) 7.63 ± 0.8; (353.15 K) 7.52 ± 0.79.

For `c1ccccc1` [benzene] + CCCCCCCCn1cc[n+](C)c1C.F[B-](F)(F)F, the activity coefficient by setting is: (313.15 K) 2.04 ± 0.21; (323.15 K) 2.07 ± 0.22; (333.15 K) 2.1 ± 0.22; (343.15 K) 2.12 ± 0.22; (353.15 K) 2.15 ± 0.23.

For `CC(C)O` [propan-2-ol] + CCCCCCCCn1cc[n+](C)c1C.F[B-](F)(F)F, the activity coefficient runs as follows: (313.15 K) 2.5 ± 0.26; (323.15 K) 2.35 ± 0.25; (333.15 K) 2.2 ± 0.23; (343.15 K) 2.07 ± 0.22; (353.15 K) 1.93 ± 0.2.

For `CCCCCCC` [heptane] + CCCCCCCCn1cc[n+](C)c1C.F[B-](F)(F)F, the activity coefficient by setting is: (313.15 K) 25.5 ± 2.7; (323.15 K) 25.1 ± 2.6; (333.15 K) 24.7 ± 2.6; (343.15 K) 24.3 ± 2.5; (353.15 K) 23.9 ± 2.5.

For the molecule `ClC(Cl)Cl` [trichloromethane] + CCCCCCCCn1cc[n+](C)c1C.F[B-](F)(F)F, the activity coefficient turned out to be 1.04 ± 0.11 (313.15 K); 1.06 ± 0.11 (323.15 K); 1.07 ± 0.11 (333.15 K); 1.08 ± 0.11 (343.15 K); 1.09 ± 0.11 (353.15 K).

With `CCOC(C)=O` [ethyl acetate] + CCCCCCCCn1cc[n+](C)c1C.F[B-](F)(F)F, the activity coefficient is 2.91 ± 0.31 (313.15 K); 2.96 ± 0.31 (323.15 K); 2.96 ± 0.31 (333.15 K); 2.96 ± 0.31 (343.15 K); 2.96 ± 0.31 (353.15 K).

As to `C1CCCCC1` [cyclohexane] + CCCCCCCCn1cc[n+](C)c1C.F[B-](F)(F)F, the activity coefficient (313.15 K) was 12.8 ± 1.4; the activity coefficient (323.15 K) was 12.5 ± 1.3; the activity coefficient (333.15 K) was 12.2 ± 1.3; the activity coefficient (343.15 K) came to 11.9 ± 1.2; the activity coefficient (353.15 K) came out at 11.5 ± 1.2.

As for `CCc1ccccc1` [ethylbenzene] + CCCCCCCCn1cc[n+](C)c1C.F[B-](F)(F)F, the activity coefficient (313.15 K) was 4.36 ± 0.46; the activity coefficient (323.15 K) is 4.42 ± 0.46; the activity coefficient (333.15 K) was determined as 4.46 ± 0.47; the activity coefficient (343.15 K) turned out to be 4.5 ± 0.47; the activity coefficient (353.15 K) came to 4.57 ± 0.48.

As for `Cc1ccccc1C` [1,2-dimethylbenzene] + CCCCCCCCn1cc[n+](C)c1C.F[B-](F)(F)F, the activity coefficient turned out to be 3.5 ± 0.37 (313.15 K); 3.58 ± 0.38 (323.15 K); 3.7 ± 0.39 (333.15 K); 3.82 ± 0.4 (343.15 K); 3.87 ± 0.41 (353.15 K).

Consider `Cc1ccccc1` [toluene] + CCCCCCCCn1cc[n+](C)c1C.F[B-](F)(F)F, for which the activity coefficient is 2.84 ± 0.3 (313.15 K); 2.89 ± 0.3 (323.15 K); 2.95 ± 0.31 (333.15 K); 3.02 ± 0.32 (343.15 K); 3.09 ± 0.32 (353.15 K).

As for `Cc1ccc(C)cc1` [1,4-dimethylbenzene] + CCCCCCCCn1cc[n+](C)c1C.F[B-](F)(F)F, the activity coefficient reads like this: (313.15 K) 4.06 ± 0.43; (323.15 K) 4.12 ± 0.43; (333.15 K) 4.16 ± 0.44; (343.15 K) 4.2 ± 0.44; (353.15 K) 4.24 ± 0.45.

As for `CC1CCCCC1` [methylcyclohexane] + CCCCCCCCn1cc[n+](C)c1C.F[B-](F)(F)F, the activity coefficient runs as follows: (313.15 K) 15.8 ± 1.7; (323.15 K) 15.5 ± 1.6; (333.15 K) 15.1 ± 1.6; (343.15 K) 14.7 ± 1.6; (353.15 K) 14.3 ± 1.5.

`CCC(C)O` (stereo not given) [butan-2-ol] + CCCCCCCCn1cc[n+](C)c1C.F[B-](F)(F)F: the activity coefficient is 2.93 ± 0.31 (313.15 K); 2.78 ± 0.29 (323.15 K); 2.65 ± 0.28 (333.15 K); 2.51 ± 0.26 (343.15 K); 2.4 ± 0.25 (353.15 K).

Take `CCCCCCCC` [octane] + CCCCCCCCn1cc[n+](C)c1C.F[B-](F)(F)F: the activity coefficient reads like this: (313.15 K) 33 ± 3.5; (323.15 K) 32.5 ± 3.4; (333.15 K) 32.2 ± 3.4; (343.15 K) 31.8 ± 3.3; (353.15 K) 31.3 ± 3.3.

In the case of `CC(C)CO` [2-methyl-1-propanol] + CCCCCCCCn1cc[n+](C)c1C.F[B-](F)(F)F, the activity coefficient worked out at 2.66 ± 0.28 (313.15 K); 2.54 ± 0.27 (323.15 K); 2.42 ± 0.25 (333.15 K); 2.3 ± 0.24 (343.15 K); 2.19 ± 0.23 (353.15 K).

For `CC(C)CC(C)(C)C` [2,2,4-trimethylpentane] + CCCCCCCCn1cc[n+](C)c1C.F[B-](F)(F)F, the activity coefficient (313.15 K) was determined as 29.6 ± 3.1; the activity coefficient (323.15 K) is 28.8 ± 3; the activity coefficient (333.15 K) was found to be 27.9 ± 2.9; the activity coefficient (343.15 K) amounted to 26.9 ± 2.8; the activity coefficient (353.15 K) amounted to 26.1 ± 2.8.

Take `C1COCCO1` [1,4-dioxane] + CCCCCCCCn1cc[n+](C)c1C.F[B-](F)(F)F: the activity coefficient runs as follows: (313.15 K) 1.67 ± 0.17; (323.15 K) 1.72 ± 0.18; (333.15 K) 1.77 ± 0.18; (343.15 K) 1.81 ± 0.19; (353.15 K) 1.86 ± 0.19.

On to `CCO` [ethanol] + CCCCCCCCn1cc[n+](C)c1C.F[B-](F)(F)F, for which the activity coefficient is 2.12 ± 0.22 (313.15 K); 1.96 ± 0.21 (323.15 K); 1.82 ± 0.19 (333.15 K); 1.67 ± 0.17 (343.15 K); 1.54 ± 0.16 (353.15 K).

`C1CCOC1` [tetrahydrofuran] + CCCCCCCCn1cc[n+](C)c1C.F[B-](F)(F)F: the activity coefficient is, setting by setting: (313.15 K) 2.06 ± 0.22; (323.15 K) 2.1 ± 0.22; (333.15 K) 2.12 ± 0.22; (343.15 K) 2.13 ± 0.22; (353.15 K) 2.15 ± 0.23.

Consider `CO` [methanol] + CCCCCCCCn1cc[n+](C)c1C.F[B-](F)(F)F, for which the activity coefficient (313.15 K) amounted to 1.57 ± 0.16; the activity coefficient (323.15 K) is 1.47 ± 0.15; the activity coefficient (333.15 K) came to 1.36 ± 0.14; the activity coefficient (343.15 K) was 1.26 ± 0.13; the activity coefficient (353.15 K) was found to be 1.18 ± 0.12.

`ClCCl` [dichloromethane] + CCCCCCCCn1cc[n+](C)c1C.F[B-](F)(F)F: the activity coefficient by setting is: (313.15 K) 1.08 ± 0.11; (323.15 K) 1.09 ± 0.11; (333.15 K) 1.1 ± 0.11; (343.15 K) 1.1 ± 0.11; (353.15 K) 1.11 ± 0.11.

Regarding `CC(C)=O` [acetone] + CCCCCCCCn1cc[n+](C)c1C.F[B-](F)(F)F, the activity coefficient reads like this: (313.15 K) 1.38 ± 0.14; (323.15 K) 1.4 ± 0.14; (333.15 K) 1.41 ± 0.15; (343.15 K) 1.42 ± 0.15; (353.15 K) 1.43 ± 0.15.

Take `CC#N` [acetonitrile] + CCCCCCCCn1cc[n+](C)c1C.F[B-](F)(F)F: the activity coefficient (313.15 K) was determined as 1.01 ± 0.1; the activity coefficient (323.15 K) was found to be 1.02 ± 0.1; the activity coefficient (333.15 K) amounted to 1.04 ± 0.11; the activity coefficient (343.15 K) was 1.05 ± 0.11; the activity coefficient (353.15 K) worked out at 1.07 ± 0.11.
